Measurements published in paper PMC6192554, “In vitro toxicity and efficacy of verdinexor, an exportin 1 inhibitor, on opportunistic viruses affecting immunocompromised individuals” (PLoS ONE, 2018).

Legend:
[1] = Cytotoxicity in GPL cells; assay type: cell-based; conditions: primary guinea pig lung cells (GPL), Guinea pig CMV primary screen
Description: Cytotoxicity assays: Concurrent assessment of cytotoxicity was also performed for each study in the same cell line and with the same compound exposure. For HCMV cytotoxicity assay was determined via neutral red uptake assay and was conducted as reported previously in HFF cells. Optical densities were determined at 550nm. Cytotoxicity assay was performed in a manner analogous to HCMV (see above).

[2] = tested on: JC polyoma virus MAD-4 strain; experiment: microbe, parasite or virus in culture; assay type: cell-based; conditions: Polyomavirus sp., COS-7, JCPyV, COS-7 cells
Description: John Cunningham polyomavirus (JCPyV) strains MAD-1 and MAD-4 and BK polyomavirus (BKPyV) Gardner strain were obtained from ATCC. COS-7 cells were obtained from ATCC and maintained according to ATCC-supplied protocols.
Cytotoxicity assay was performed in a manner analogous to KSHV above. Evaluation of compounds against JCPyV virus was done in COS7 cells with the plasmid pMP508 to provide a standard curve for quantification.
Viral DNA was quantified (S1 Table) together with the plasmid pMP508 to provide a standard curve for absolute quantification. Secondary assays against JCV were also performed in COS7 cells by methods similar to those for BK virus to identify if verdinexor inhibited adsorption or entry of the virus.

histamine H1 receptor = histamine H1 receptor (Homo sapiens, UniProt P35367); experiment: Histamine H1 receptor binding (off-target panel); conditions: Study No. KS-1016 and PE-50946871
HPV-11 = HPV-11 transient origin-plasmid replication assay in HEK293 cells (qPCR); assay type: cell-based, human papillomavirus; conditions: Human papillomavirus, HPV-11, primary screen
Description: HPV-11 and -18 were tested in HEK293 cells and primary human keratinocytes (PHK), respectively. PHKs were isolated from neonatal foreskins following circumcision according to IRB-approved protocols at UAB. They were grown in keratinocyte serum-free medium (Life Technologies) with mitomycin C-treated J2 feeder cells (Swiss 3T3 J2 fibroblasts; Elaine Fuchs, Rockefeller University). HEK 293 cells were maintained under standard conditions.
Quantification of virus was determined via transient replication of an HPV-11 replication origin-containing plasmid in HEK293 cells co-transfected with an HPV-11 replicative DNA helicase E1 and origin binding E2 protein [20]. 293 cells were cultured with test compounds added 4hr post-transfection for 2 days. Low molecular weight DNA was isolated, digested with Dpn1 and exonuclease III to eliminate unreplicated DNA. The Dpn1-resistant DNA was then subjected to qPCR analyses amplifying a small portion of the replication origin [20]. In a negative control, the E1 expression vector was omitted or cultures were treated with the inhibitor cidofovir.

[3] = Cytotoxicity in Akata cells (CellTiter-Glo), concurrent with EBV assays; assay type: cell-based; conditions: human
Description: Cytotoxicity assays: Concurrent assessment of cytotoxicity was also performed for each study in the same cell line and with the same compound exposure. For KSHV, cell viability was assessed with the CellTiter-Glo Luminescent Cell Viability Assay (Promega) using manufacturer’s protocol. Luminescence was quantified on a luminometer. Standard methods were used to calculate the 50% cytotoxic level (CC50). Cytotoxicity assay was performed in a manner analogous to KSHV (see above).

[4] = tested on: Guinea pig CMV strain 22122; experiment: GPCMV plaque reduction assay in GPL cells; assay type: cell-based, guinea pig cytomegalovirus; conditions: in Cavia porcellus, primary screen
Description: Murine CMV strain Smith was obtained from Earl Kern and assayed in mouse embryonic fibroblast cells (MEF) immortalized by telomerization. Guinea pig CMV strain 22122 was obtained from the ATCC and assayed in primary guinea pig lung cells (GPL). Both MEF and GPL cells were prepared at the UAB tissue procurement facility with IRB approval as previously described.
Plaque reduction assays for MCMV, GPCMV were performed on monolayers of GPL (GPCMV) or MEF (MCMV) cells prepared in six-well plates and incubated at 37°C for 2d to allow the cells to reach confluency. Media was then aspirated from the wells and 0.2ml of virus was added to each of three wells to yield 20–30 plaques in each well. The virus was allowed to adsorb to the cells for 1h and the plates were agitated every 15min. Compounds were diluted in assay media consisting of MEM with Earl’s salts supplemented with 2% FBS, L-glutamine, penicillin, and gentamycin. Solutions ranging from 0.0032–10μM (primary) or 0.032–100μM (secondary) were added to triplicate wells and the plates were incubated for various times, depending on the virus used. For MCMV and GPCMV, the cell monolayer was stained with 1% neutral red solution for 4h at which time the stain was aspirated and cells were washed with PBS. […]

[5] = Cytotoxicity in HEK293 cells (cell counter viability); assay type: cell-based; conditions: human, HPV-11 primary screen
Description: Cytotoxicity assays: Concurrent assessment of cytotoxicity was also performed for each study in the same cell line and with the same compound exposure.
HPV cytotoxicity assay was performed at the time of viral harvest by scoring cells in a BioRad Automatic Cell Counter for cell viability.

KSHV strain BCBL-1 = experiment: KSHV qPCR of viral DNA in PMA-induced BCBL-1 cells; assay type: cell-based, Kaposi's sarcoma-associated herpesvirus; conditions: Human gammaherpesvirus 8, BCBL1, KSHV
Description: KSHV strain BCBL-1 was obtained as latently infected BCBL-1 cells through the NIH AIDS Research and Reference Reagent Program. BCBL-1 cells were maintained in growth medium consisting of RPMI 1640 supplemented with 10% FBS, penicillin, gentamicin, and l-glutamine.
To quantify virus, compound was diluted from 0.008–100μM and added to BCBL-1 cells induced to undergo a lytic infection by the addition of 100ng/ml phorbol 12-myristate 13-acetate (PMA) (Promega). After 7d, total DNA was prepared, and viral DNA was quantified by qPCR (see S1 Table for primer/probe sequences). Plasmid pMP218 containing a DNA sequence corresponding to nucleotides 14120–14182 (AF148805.2) was used to provide absolute quantification of viral DNA and EC50 [11].

[6] = Cytotoxicity in HeLa cells (MTS); assay type: cell-based; conditions: human
Description: Cytotoxicity assays: Concurrent assessment of cytotoxicity was also performed for each study in the same cell line and with the same compound exposure. For AdV cytotoxicity assay, at 6d post-infection plates were stained with tetrazolium-based MTS (CellTiter96 Reagent, Promega) and the microtiter plates were read spectrophotometrically at 490/650nm (Molecular Devices).

diverse panel of viruses = experiment: Broad antiviral screening, summary over all viruses; assay type: cell-based; conditions: across the panel of viruses; read-out: median EC50
Description: Each assay was performed in triplicate in 2 independent assays. In some cases different assays were used for the secondary screen, as alternate experimental procedures are able to measure differential effects on the viral life cycle (ie. qPCR for genome replication, plaque reduction for replication, assembly and release, etc.).

Sequence of histamine H1 receptor (P35367 whole entry, species assumed): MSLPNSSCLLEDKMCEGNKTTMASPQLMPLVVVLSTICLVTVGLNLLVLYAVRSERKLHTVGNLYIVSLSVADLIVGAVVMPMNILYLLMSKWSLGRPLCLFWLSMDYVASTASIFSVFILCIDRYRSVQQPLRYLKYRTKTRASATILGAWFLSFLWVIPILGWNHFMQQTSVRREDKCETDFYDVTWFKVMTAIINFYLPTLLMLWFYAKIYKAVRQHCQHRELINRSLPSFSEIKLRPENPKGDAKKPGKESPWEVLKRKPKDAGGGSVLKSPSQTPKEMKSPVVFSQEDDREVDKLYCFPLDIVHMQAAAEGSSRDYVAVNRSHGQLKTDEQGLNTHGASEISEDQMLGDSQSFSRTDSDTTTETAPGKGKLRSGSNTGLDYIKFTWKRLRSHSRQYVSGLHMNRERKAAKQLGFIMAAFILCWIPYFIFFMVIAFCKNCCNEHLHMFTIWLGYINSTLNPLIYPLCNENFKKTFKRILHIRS

## O=C(C=Cn1cnc(-c2cc(C(F)(F)F)cc(C(F)(F)F)c2)n1)NNc1ccccn1 (stereo in doubt) [verdinexor, (E)-3-[3-[3,5-bis(trifluoromethyl)phenyl]-1,2,4-triazol-1-yl]-N'-pyridin-2-ylprop-2-enehydrazide]
[1]
  CC50: 2000 nM
[2]; primary screen
  EC50: 7.45 µM
[2]; secondary screen
  EC50: 3.14 µM
Histamine H1 receptor
  inhibition at 10 µM: 33%
HPV-11
  EC50: 1650 nM
[3]; EBV assays
  CC50: < 680 nM
[3]; EBV primary screen
  CC50: 680 nM
[3]; EBV secondary screen
  CC50: 340 nM
[4]
  EC50: 190 nM
[5]
  CC50: 89.5 µM
KSHV strain BCBL-1; primary screen
  EC50: < 800 nM
KSHV strain BCBL-1; secondary screen
  EC50: 270 nM
[6]; Ad5 primary screen
  CC50 at 6 d: 180 nM
[6]; Ad5 secondary screen
  CC50 at 6 d: 100 nM
Diverse panel of viruses
  EC50: 2000 nM
